Measurements: article PMC9321829 (Chembiochem, 2022)

Target: T1, TAL amo (Aeromonas molluscorum, UniProt R1H7C8)
T1 sequence (R1H7C8 1-531): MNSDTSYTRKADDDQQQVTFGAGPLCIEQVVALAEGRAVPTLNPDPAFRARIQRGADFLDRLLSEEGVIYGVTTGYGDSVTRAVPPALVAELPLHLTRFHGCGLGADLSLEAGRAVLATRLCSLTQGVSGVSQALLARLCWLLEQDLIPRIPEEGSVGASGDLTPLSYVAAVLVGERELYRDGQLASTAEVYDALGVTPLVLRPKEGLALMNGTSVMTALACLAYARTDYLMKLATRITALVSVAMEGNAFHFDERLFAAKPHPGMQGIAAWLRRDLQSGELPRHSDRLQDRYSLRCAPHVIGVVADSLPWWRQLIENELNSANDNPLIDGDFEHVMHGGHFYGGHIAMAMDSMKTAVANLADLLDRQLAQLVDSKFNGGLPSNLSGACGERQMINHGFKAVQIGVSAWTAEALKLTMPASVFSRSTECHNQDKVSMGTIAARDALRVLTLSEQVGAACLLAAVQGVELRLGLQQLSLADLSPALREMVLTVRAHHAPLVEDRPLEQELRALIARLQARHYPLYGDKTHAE
Experiment: UV assay, cinnamic acid formation at […] nm
Type: biochemical
Conditions: 10 mM substrate, 20 mM PBS pH 7.5, 25 °C

N[C@@H](Cc1ccccc1)C(=O)O [L-phenylalanine]
UV assay, cinnamic acid formation at 290 nm: They presented a slight activity towards L‐phenylalanine.
